Each structure is given as a SMILES string. Read-outs that look alike come from different tables or passages of the source.

By melting point is commonly meant the temperature of the solid-liquid transition.

Data set [1] in a line: Aqueous humor penetration test. The class given is in vivo, Japanese white rabbits. The settings on record: rabbit. The method, then: The suspension of Formulation Example 4 to be mentioned later was instilled by 50 μL into the both eyes of Japanese white rabbits (body weight about 2 kg, purchased from Fukusaki Rabbit Union). At 0.25, 0.5, 1 and 3 hr after the instillation, the rabbits were sacrificed with pentobarbital and aqueous humor was recovered. Using a column switching system HPLC, the concentration of Compound 1 in the aqueous humor was measured.

The subject of data set [2] is N1E-115 cells. The data set is classed as cell-based. The following applies: mouse, 24 h. The method, then: Mouse neuroblastoma derived cell lines (N1E-115 cells) were seeded in a 96 well microplate at 10^4 per well and cultured overnight in Dulbecco's Modified Eagle's Minimum Essential Medium (100 μL, DMEM, GIBCO) containing 10% FBS at 37° C. under 5% CO2. The whole amount of the culture solution was removed, and the medium was changed to various concentrations of a test drug solution (100 μL, prepared by dissolving Compound 1 in 99.5% ethanol and adjusting final concentration of ethanol to 1% with DMEM) and the cells were cultured for 24 hr. The culture supernatant and cells were separately recovered. The cells were ultrasonicated to give soluble fractions and the lactic dehydrogenase (LDH) activity of each of them was determined with an LDH cytotoxicity detection kit (MK401, manufactured by Takara Bio Inc.), and an LDH release rate was determined by the following formula and taken as a proportion of the cells suffered from cytotoxicity. LDH release rate (%)={LDH activity of culture supernatant/(LDH activity of culture supernatant+intracellular LDH activity)}×100
LD50 was determined from the LDH release rate at each test drug concentration by LD50/ED50 probit method of SAS preclinical package (Ver. 6.12).

As to `Cc1cccc(NC(=S)N[C@@H](CC(C)C)C(=O)N[C@H]2CCOC2O)c1` (stereo partly drawn) [Compound 10, (2S)-4-methyl-2-((((3-methylphenyl)amino)thioxomethyl)amino)-N-((3S)-tetrahydro-2-hydroxy-3-furanyl)pentanamide], the melting point fell in the range of 61.4 to 61.9 °C.

Consider `CCC(C)[C@H](NC(=S)Nc1ccccc1)C(=O)N[C@H]1CCOC1O` (stereo partly drawn) [Compound 2, (2S)-3-methyl-2-(((phenylamino)thioxomethyl)amino)-N-((3S)-tetrahydro-2-hydroxy-3-furanyl)pentanamide], for which the melting point was in the range of 51.3 to 52.9 °C.

For the compound `CC(C)C[C@H](NC(=S)Nc1ccccc1)C(=O)N[C@H]1CCOC1O` (stereo partly drawn) [Compound 1, (2S)-4-methyl-2-(((phenylamino)thioxomethyl)amino)-N-((3S)-tetrahydro-2-hydroxy-3-furanyl)pentanamide], in data set [1] (Japanese white, aqueous humor, topical, 50 μL per eye, 0-3 hr after the instillation of the suspension of Formulation Example 4, read-out: area under drug concentration-time curve (AUC) of amount penetrated to aqueous humor), the AUC came to 4.79 µM·h. Also, the Cmax in data set [1] (Japanese white, aqueous humor, topical, 50 μL per eye, 50 μL instillation of the suspension of Formulation Example 4, read-out: concentration in the aqueous humor, maximum (Cmax)) came out at 2900 nM. Further, in data set [1] (50 μL instillation of the suspension of Formulation Example 4), the “time at which concentration in the aqueous humor reached the maximum” value turned out to be 0.5 h. For the same compound, the LDH release rate in data set [2] (0.1 mM) was 9.32 ± 0.07%; in data set [2] (0.5 mM), 11.05 ± 0.72%; in data set [2] (1 mM), 14.22 ± 1.14%; in data set [2] (2 mM) it was 47.73 ± 1.66%.

`Cc1ccccc1NC(=S)N[C@@H](CC(C)C)C(=O)N[C@H]1CCOC1O` (stereo partly drawn) [Compound 9, (2S)-4-methyl-2-((((2-methylphenyl)amino)thioxomethyl)amino)-N-((3S)-tetrahydro-2-hydroxy-3-furanyl)pentanamide] registered a melting point of 57.9 to 58.9 °C.

(Values after patent US7202274B2, “Cyclic hemiacetal derivative and use thereof” (Senju Pharmaceutical Co., Ltd., priority 2002, dated 2007).)
